Measured values from patent publication US5952307A, “Basic α-aminoalkylphosphonate derivatives” (priority 1997, dated 1999).
Read-outs that look alike come from different tables or passages of the source.

Assays:
Assay type in all cases: biochemical
[1] = target: T1, human thrombin (Homo sapiens, UniProt P00734); conditions: 25° C., NI = no inhibition
T1 construct: bovine trypsin, human thrombin
Summary of the method: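 Irreversible inactivation followed by incubation method at 25 °C: 0.07 μM thrombin with 0.25–42 μM inhibitor in 80 mM Hepes pH 7.5, 428 mM NaCl, 8% DMSO. Residual activity of withdrawn aliquots measured with thioester or 4-nitroanilide substrates; kobs from pseudo-first-order fits.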

[2] = tested on: rat granzyme A; assay: Inactivation rate of rat granzyme A, incubation method; conditions: Table I; 0.1M Hepes, 0.01M CaCl2 pH 7.5, 25° C., 7.6% DMSO, substrate Z--Arg--SBzl
Method: (§1) Inactivation rates of serine proteases by aryl diesters of peptidyl derivatives of α-aminoalkylphosphonates were measured by the incubation method. An aliquot of inhibitor (25 or 50 μl) in Me2 SO was added to a buffered enzyme solution (0.01-2.3 μM) to initiate the inactivation. Aliquots (50 μl) were withdrawn at various intervals and the residual enzymatic activity was measured. Me2 SO concentration in the reaction mixture was 8-12% (v/v). A 0.1 M HEPES, 0.01 M CaCl2, pH 7.5 buffer was utilized for trypsin and trypsin-like enzymes. A 0.1 M HEPES, 0.5 M NaCl, pH 7.5, was utilized for the other serine proteases. Peptide thioesters or peptide nitroanilides with the appropriate sequences were used as substrates for various serine proteases. All peptide thioesters hydrolysis rates were measured with the assay mixture containing 4,4'-dithiodipyridine {ε324 =19800 M^-1 cm^-1; Grasetti & Murray, Arch. Biochem. Biophys. 1967, 119, 41-48}. Peptide 4-nitroanilide hydrolysis was measured at 410 nm {ε410 =8800 M^-1 cm^-1; Erlanger et al., Arch. Biochem. Biophys. 1961, 95, 271-278}. First order inactivation rate constants (Kobs) were obtained from plots of In vt /vo vs time, and the correlation coefficients were greater then 0.98.
(§2) ^a Inhibition constants were measured in 0.1M Hepes, 0.01M CaCl2
(§3) pH 7.5 for trypsin, granzymes A, and K, and in 0.1M Hepes, 10% glycerol,
(§4) 10 mM heparin, pH 7.5 for mast cell tryptase, and at 25° C. The
(§5) reaction mixtures contained 2% DMSO for trypsin, 7.6% for granzyme A, and
(§6) 7.1% for granzyme K and tryptase. The substrate was Z--Arg--SBzl for
(§7) granzymes and trypsin, and Z--Arg--SBzl or Z--Lys--SBzl for tryptase in
(§8) the presence of DTNB. The inhibitor # concentration ranged from 0.001 to
(§9) ^b NI, no inhibition after 25 min of incubation with enzyme.

[3] = target: T2, human granzyme A (Homo sapiens, UniProt P12544); assay: Inactivation rate of human granzyme A, incubation method; conditions: Table I; 0.1M Hepes, 0.01M CaCl2 pH 7.5, 25° C., 7.6% DMSO, substrate Z--Arg--SBzl
T2 sequence (P12544 29-262): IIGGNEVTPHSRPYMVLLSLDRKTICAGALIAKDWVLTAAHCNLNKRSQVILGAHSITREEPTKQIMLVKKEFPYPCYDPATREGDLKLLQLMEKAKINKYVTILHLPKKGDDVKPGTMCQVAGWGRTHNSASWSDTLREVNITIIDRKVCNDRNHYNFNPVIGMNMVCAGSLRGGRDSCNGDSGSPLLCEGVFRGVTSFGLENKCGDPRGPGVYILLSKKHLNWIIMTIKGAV
Method: as §1, §2, §3, §4, §5, §6, §7, §8, §9

[4] = target: T3, bovine trypsin (Bos taurus, UniProt P00760); assay: Inactivation rate of bovine trypsin, incubation method; conditions: for kobsd /[I] bovine trypsin: Table I, 0.1M Hepes, 0.01M CaCl2 pH 7.5, 25° C., 2% DMSO, substrate Z--Arg--SBzl, NI = no inhibition after 25 min; for kobs /[I] bovine trypsin: Table II, 0.13 μM trypsin, 0.25-42 μM inhibitor, 80 mM Hepes pH 7.5, 1 mM CaCl2, 8% DMSO, 25° C., NI = no inhibition
T3 sequence (P00760 24-246): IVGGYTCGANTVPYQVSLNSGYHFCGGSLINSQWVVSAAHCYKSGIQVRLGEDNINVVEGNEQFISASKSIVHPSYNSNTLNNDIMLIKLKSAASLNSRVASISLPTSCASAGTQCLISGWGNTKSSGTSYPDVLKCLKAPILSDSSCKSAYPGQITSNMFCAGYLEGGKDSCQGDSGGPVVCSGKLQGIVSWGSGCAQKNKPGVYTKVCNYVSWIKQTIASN
Summary of the method: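 Incubation method: trypsin pre-incubated with inhibitor (0.25-42 μM) at 25° C in 80 mM Hepes, 1 mM CaCl2, pH 7.5, 8% DMSO; aliquots withdrawn over time for residual activity on Z-Arg-SBzl thioester with DTNB or 4,4'-dithiodipyridine. Pseudo-first-order kobs from ln vt/vo versus time.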

[5] = target: mast cell tryptase (Homo sapiens, UniProt Q15661); assay: Inactivation rate of mast cell tryptase, incubation method; conditions: for kobsd /[I] mast cell tryptase: Table I, 0.1M Hepes, 10% glycerol, 10 mM heparin, pH 7.5, 25° C., 7.1% DMSO, NI = no inhibition after 25 min of incubation; for kobs /[I] mast cell tryptase: 25° C., NI = no inhibition
Method: as §1, §2, §3, §4, §5, §6, §7, §8, §9
^a Enzyme was incubated with the inhibitor in 250 μL of the proper
containing 428 mM NaCl and 8% DMSO; 0.07 μM tryptase, 20-66 μM
inhibitor # in an mM Hepes, pH 7.5 buffer containing 8 mM heparin, 166 m
NaCl, 0.8 mM Mes, 9% glycerol and 8% DMSO; 0.42 μM factor Xa, 66 μM
DMSO. Aliquots of 25 μL were withdrawn at various intervals and the
residual enzymatic activity was measured as described in experimental
section. The kobs values were calculated from pseudofirst-order
^a Enzyme (0.06-0.5 μM) was incubated with the inhibitor (0.25-42
μM) in 250 μL of the proper buffer containing 9% DMSO at 25°
C. The final inhibition reaction mixtures are given in the footnote to
Table 1. Aliquots of 25 μL were withdrawn at various intervals and the […]

[6] = target: T3, bovine trypsin; assay: Inactivation rate of bovine trypsin, incubation method; conditions: Table III; enzyme 0.06-0.5 μM, inhibitor 0.25-42 μM, 9% DMSO, 25° C.; NI = no inhibition
[7] = target: T4, rat granzyme K (Rattus norvegicus, UniProt P49864); assay: Inactivation rate of rat granzyme K, incubation method; conditions: Table I; 0.1M Hepes, 0.01M CaCl2 pH 7.5, 25° C., 7.1% DMSO, substrate Z--Arg--SBzl; NI = no inhibition after 25 min of incubation
T4 sequence (P49864 26-258): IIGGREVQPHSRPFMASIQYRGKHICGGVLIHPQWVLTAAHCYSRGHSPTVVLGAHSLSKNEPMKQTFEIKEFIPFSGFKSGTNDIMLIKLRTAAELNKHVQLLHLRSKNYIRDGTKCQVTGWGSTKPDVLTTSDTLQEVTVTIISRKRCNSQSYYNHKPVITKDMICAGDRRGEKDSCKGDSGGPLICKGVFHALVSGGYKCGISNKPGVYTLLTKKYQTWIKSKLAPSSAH
Method: as §1, §2, §3, §4, §5, §6, §7, §8, §9

[8] = Table II, 0.07 μM thrombin, 0.25-42 μM inhibitor, 80 mM Hepes pH 7.5, 428 mM NaCl, 8% DMSO
[9] = Table II, 0.07 μM tryptase, 20-66 μM inhibitor, Hepes pH 7.5, heparin, 9% glycerol, 8% DMSO
[10] = Table III, enzyme 0.06-0.5 μM, inhibitor 0.25-42 μM, 9% DMSO

Sequence of mast cell tryptase (Q15661 31-275): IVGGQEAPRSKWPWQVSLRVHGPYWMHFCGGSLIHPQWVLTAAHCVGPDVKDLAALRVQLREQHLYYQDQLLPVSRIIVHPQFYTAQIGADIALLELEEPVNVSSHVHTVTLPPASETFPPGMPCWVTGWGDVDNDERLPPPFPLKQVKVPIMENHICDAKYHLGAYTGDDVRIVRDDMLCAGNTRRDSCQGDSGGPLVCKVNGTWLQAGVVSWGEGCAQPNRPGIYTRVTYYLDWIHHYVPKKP

SMILES	kobs /[I] human thrombin [1, 8]	kobsd /[I] rat granzyme A [2] [M⁻¹ s⁻¹]	kobsd /[I] human granzyme A [3] [M⁻¹ s⁻¹]	kobsd /[I] bovine trypsin [4] [M⁻¹ s⁻¹]	kobs /[I] bovine trypsin [4]	kobsd /[I] mast cell tryptase [5] [M⁻¹ s⁻¹]	kobs /[I] mast cell tryptase [5, 9] [M⁻¹ s⁻¹]	kobs /[I] human thrombin [1, 10] [M⁻¹ s⁻¹]	kobs /[I] bovine trypsin [6] [M⁻¹ s⁻¹]	kobs /[I] mast cell tryptase [5, 10] [M⁻¹ s⁻¹]	kobsd /[I] rat granzyme K [7] [M⁻¹ s⁻¹]
CC(NC(=O)OCc1ccccc1)C(=O)NC(c1ccc(C(=N)N)cc1)P(=O)(Oc1ccccc1)Oc1ccccc1 (mixture of isomers) [Cbz--Ala-(4-AmPhGly)^P (OPh)2]	750 ± 18 M⁻¹ s⁻¹	1270 ± 85	1670 ± 11	1850 ± 85	1,850 ± 85 M^-1 s^-1	0.8	0.8	–	–	–	–
CC(C)C(NC(=O)CCC(=O)O)C(=O)N1CCCC1C(=O)NC(CCCCN)P(=O)(Oc1ccccc1)Oc1ccccc1 (mixture of isomers) [Suc--Val--Pro--Lys^P (OPh)2]	–	–	–	–	–	–	–	3.4 ± 0.4	416 ± 28	0.6	–
CC(C)(C)OC(=O)NC(CC(N)=O)C(=O)NC(CCCCN)P(=O)(Oc1ccccc1)Oc1ccccc1 (mixture of isomers) [Boc--Asn--Lys^P (OPh)2]	–	–	–	–	–	–	–	–	3	–	–
CC(C)C(NC(=O)CCC(=O)O)C(=O)N1CCCC1C(=O)NC(CCCCCN)P(=O)(Oc1ccccc1)Oc1ccccc1 (mixture of isomers) [Suc--Val--Pro-HomoLys^P (OPh)2]	–	–	–	–	–	–	–	1.6 ± 0.3	51 ± 10	4.1 ± 0.4	–
N=C(N)c1ccc(C(NS(=O)(=O)c2cccc3ccccc23)P(=O)(Oc2ccccc2)Oc2ccccc2)cc1 (racemic) [1-NpSO2-(4-AmPhGly)^P (OPh)2]	24 ± 3 M⁻¹ s⁻¹	30 ± 1	330 ± 26	170 ± 34	170 ± 34 M⁻¹ s⁻¹	10	10 ± 1	–	–	–	–
CC(C)C(NC(=O)OCc1ccccc1)C(=O)NC(c1ccc(C(=N)N)cc1)P(=O)(Oc1ccccc1)Oc1ccccc1 (mixture of isomers) [Cbz--Val-(4-AmPhGly)^P (OPh)2]	5.5 ± 0.4 M⁻¹ s⁻¹	–	6.7 ± 0.1	41 ± 3	18 ± 2 M⁻¹ s⁻¹	21.2 ± 0.2	21.2 ± 0.2	–	–	–	0.7 ± 0.04
Cl.N=C(N)c1ccc(C(NC(=O)/C=C/c2cccnc2)P(=O)(Oc2ccccc2)Oc2ccccc2)cc1 (stereo not drawn) [Diphenyl N-(trans-3-(3-Pyridyl)acryloyl)amino(4-amidinophenyl)methanephosphonate Hydrochloride]	2 M⁻¹ s⁻¹	1	5	–	–	–	–	–	–	–	3
C[C@H](NC(=O)CCC(=O)O)C(=O)N[C@@H](C)C(=O)NC(c1ccc(C(=N)N)cc1)P(=O)(Oc1ccccc1)Oc1ccccc1 (some centres unmarked) [Suc--Ala--Ala-(4-AmPhGly)^P (OPh)2]	2 M⁻¹ s⁻¹	–	260 ± 15	640 ± 36	640 ± 36 M⁻¹ s⁻¹	0.7	0.7	–	–	–	0.3 ± 0.01
N=C(N)c1ccc(C(NC(=O)C2CCCN2C(=O)CCc2ccccc2)P(=O)(Oc2ccccc2)Oc2ccccc2)cc1 (centres unmarked) [3-Phenylpropanoyl-Pro-(4-AmPhGly)^P (OPh)2]	6,070 ± 68 M^-1 s^-1	–	1510 ± 217	1520 ± 27	1,520 ± 27 M^-1 s^-1	0.4	0.4	–	–	–	50 ± 2
N=C(N)c1ccc(C(NC(=O)CCC(=O)O)P(=O)(Oc2ccccc2)Oc2ccccc2)cc1 (centres unmarked) [Suc-(4-AmPhGly)^P (OPh)2]	2 M⁻¹ s⁻¹	–	857	45 ± 3	45 ± 3 M⁻¹ s⁻¹	0.2	0.2	–	–	–	0.3 ± 0.07
